Assays:
[1] = tested on: ABUTH; test: Pre-emergence herbicidal action against ABUTH; type: in vivo, Abutilon theophrasti; settings: Abutilon theophrasti, 504 h; for pest or weed control at 80 g/ha: scored visually after 3 weeks vs untreated controls (100% = plants have died, 0% = like control plants); for pest or weed control at 20 g/ha: dosage 20 g/ha, scored visually after 3 weeks vs untreated controls, 100% = plants have died, 0% = like control plants, read-out: Pre-emergence action against ABUTH (herbicidal activity in percent)
Procedure, shortened: (§1)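 Seeds sown in sandy loam, soil-covered; compound sprayed on soil surface pre-emergence. Application: WP/EC, 600–800 l/ha, 0.2% wetting agent. Readout: visual % damage at 3 weeks.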

[2] = tested on: ALOMY; test: Pre-emergence herbicidal action against ALOMY; type: in vivo, Alopecurus myosuroides; settings: Alopecurus myosuroides, 504 h; 80 g/ha, pre-emergence, scored visually after 3 weeks vs untreated controls (100% = plants have died, 0% = like control plants)
Procedure, shortened: as §1

[3] = tested on: AMARE; test: Pre-emergence herbicidal action against AMARE; type: in vivo, Amaranthus retroflexus; settings: Amaranthus retroflexus, 504 h, scored visually after 3 weeks vs untreated controls, 100% = plants have died, 0% = like control plants
Procedure, shortened: as §1

[4] = tested on: AVEFA; test: Pre-emergence herbicidal action against AVEFA; type: in vivo, Avena fatua; settings: Avena fatua, 504 h, pre-emergence
Procedure, shortened: as §1

[5] = tested on: ECHCG; test: Pre-emergence herbicidal action against ECHCG; type: in vivo, Echinochloa crus-galli; settings: Echinochloa crus-galli, 504 h
Procedure, shortened: as §1

[6] = tested on: LOLRI; test: Pre-emergence herbicidal action against LOLRI; type: in vivo, Lolium rigidum; settings: Lolium rigidum, 504 h, 80 g/ha
Procedure, shortened: as §1

[7] = tested on: MATIN; test: Pre-emergence herbicidal action against MATIN; type: in vivo, Matricaria inodora; settings: Tripleurospermum inodorum, 504 h; for pest or weed control at 20 g/ha: dosage 20 g/ha; for pest or weed control at 80 g/ha: dosage 80 g/ha
Procedure, shortened: as §1

[8] = tested on: PHBPU; test: Pre-emergence herbicidal action against PHBPU; type: in vivo, Pharbitis purpurea; settings: Ipomoea purpurea, 504 h, dosage 80 g/ha
Procedure, shortened: as §1

[9] = tested on: POLCO; test: Pre-emergence herbicidal action against POLCO; type: in vivo, Polygonum convolvulus; settings: Fallopia convolvulus, 504 h; for pest or weed control at 80 g/ha: dosage 80 g/ha
Procedure, shortened: as §1

[10] = tested on: SETVI; test: Pre-emergence herbicidal action against SETVI; type: in vivo, Setaria viridis; settings: Setaria viridis, 504 h; for pest or weed control at 80 g/ha: dosage 80 g/ha
Procedure, shortened: as §1

[11] = tested on: STEME; test: Pre-emergence herbicidal action against STEME; type: in vivo, Stellaria media; settings: Stellaria media, 504 h; for pest or weed control at 20 g/ha: dosage 20 g/ha; for pest or weed control at 80 g/ha: dosage 80 g/ha
Procedure, shortened: as §1

[12] = tested on: VERPE; test: Pre-emergence herbicidal action against VERPE; type: in vivo, Veronica persica; settings: Veronica persica, 504 h, dosage 80 g/ha
Procedure, shortened: as §1

[13] = tested on: VIOTR; test: Pre-emergence herbicidal action against VIOTR; type: in vivo, Viola tricolor; settings: Viola tricolor, 504 h; for pest or weed control at 20 g/ha: dosage 20 g/ha; for pest or weed control at 80 g/ha: dosage 80 g/ha
Procedure, shortened: as §1

[14] = tested on: DIGSA; test: Pre-emergence herbicidal action against DIGSA; type: in vivo, Digitaria sanguinalis; settings: Digitaria sanguinalis, 504 h; for pest or weed control at 20 g/ha: dosage 20 g/ha; for pest or weed control at 80 g/ha: dosage 80 g/ha
Procedure, shortened: as §1

[15] = tested on: ABUTH; test: Post-emergence herbicidal action against ABUTH; type: in vivo, Abutilon theophrasti; settings: Abutilon theophrasti, 504 h, visual assessment about 3 weeks after treatment vs untreated controls; for pest or weed control at 5 g/ha: dosage 5 g/ha; for pest or weed control at 20 g/ha: dosage 20 g/ha
Procedure, shortened: (§2)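 Sandy loam, greenhouse; treatment 2–3 weeks after sowing, one-leaf stage. Aqueous suspension or emulsion from WP/EC sprayed on foliage (600–800 l/ha, 0.2% wetting agent). Readout: visual % action, ~3 weeks.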

[16] = tested on: AMARE; test: Post-emergence herbicidal action against AMARE; type: in vivo, Amaranthus retroflexus; settings: Amaranthus retroflexus, 504 h, 20 g/ha, visual assessment about 3 weeks after treatment, 100% = plants have died, 0% = like control plants
Procedure, shortened: as §2

[17] = tested on: ECHCG; test: Post-emergence herbicidal action against ECHCG; type: in vivo, Echinochloa crus-galli; settings: Echinochloa crus-galli, 504 h; for pest or weed control at 5 g/ha: dosage 5 g/ha; for pest or weed control at 20 g/ha: dosage 20 g/ha
Procedure, shortened: as §2

[18] = tested on: MATIN; test: Post-emergence herbicidal action against MATIN; type: in vivo, Matricaria inodora; settings: Tripleurospermum inodorum, 504 h; for pest or weed control at 5 g/ha: dosage 5 g/ha; for pest or weed control at 20 g/ha: dosage 20 g/ha
Procedure, shortened: as §2

[19] = tested on: PHBPU; test: Post-emergence herbicidal action against PHBPU; type: in vivo, Pharbitis purpurea; settings: Ipomoea purpurea, 504 h; for pest or weed control at 5 g/ha: dosage 5 g/ha; for pest or weed control at 20 g/ha: dosage 20 g/ha
Procedure, shortened: as §2

[20] = tested on: SETVI; test: Post-emergence herbicidal action against SETVI; type: in vivo, Setaria viridis; settings: Setaria viridis, 504 h; for pest or weed control at 20 g/ha: dosage 20 g/ha
Procedure, shortened: as §2

[21] = tested on: STEME; test: Post-emergence herbicidal action against STEME; type: in vivo, Stellaria media; settings: Stellaria media, 504 h, 20 g/ha
Procedure, shortened: as §2

[22] = tested on: VERPE; test: Post-emergence herbicidal action against VERPE; type: in vivo, Veronica persica; settings: Veronica persica, 504 h, 20 g/ha
Procedure, shortened: as §2

[23] = tested on: VIOTR; test: Post-emergence herbicidal action against VIOTR; type: in vivo, Viola tricolor; settings: Viola tricolor, 504 h
Procedure, shortened: as §2

[24] = tested on: DIGSA; test: Post-emergence herbicidal action against DIGSA; type: in vivo, Digitaria sanguinalis; settings: Digitaria sanguinalis, 504 h
Procedure, shortened: as §2

[25] = tested on: ALOMY; test: Post-emergence herbicidal action against ALOMY; type: in vivo, Alopecurus myosuroides; settings: Alopecurus myosuroides, 504 h, dosage 20 g/ha, visual assessment about 3 weeks after treatment vs untreated controls
Procedure, shortened: as §2

[26] = tested on: AVEFA; test: Post-emergence herbicidal action against AVEFA; type: in vivo, Avena fatua; settings: Avena fatua, 504 h, 20 g/ha, visual assessment about 3 weeks after treatment, 100% = plants have died, 0% = like control plants
Procedure, shortened: as §2

SMILES: CCNC(=O)c1c(C(F)F)ccc(C(=O)Nc2nnnn2C)c1C [Example 1-45]
- pest or weed control at 80 g/ha [1]: 100%
- pest or weed control at 20 g/ha [1]: 80%
- pest or weed control at 80 g/ha [2]: 90%
- pest or weed control at 20 g/ha [3]: 100%
- pest or weed control at 80 g/ha [3]: 100%
- pest or weed control at 80 g/ha [4]: 90%
- pest or weed control at 80 g/ha [5]: 90%
- pest or weed control at 80 g/ha [6]: 80%
- pest or weed control at 20 g/ha [7]: 100%
- pest or weed control at 80 g/ha [7]: 100%
- pest or weed control at 80 g/ha [8]: 90%
- pest or weed control at 20 g/ha ([9]; dosage 20 g/ha): 90%
- pest or weed control at 80 g/ha [9]: 90%
- pest or weed control at 80 g/ha [10]: 100%
- pest or weed control at 20 g/ha [11]: 90%
- pest or weed control at 80 g/ha [11]: 90%
- pest or weed control at 80 g/ha [12]: 90%
- pest or weed control at 20 g/ha [13]: 80%
- pest or weed control at 80 g/ha [13]: 100%
- pest or weed control at 20 g/ha [14]: 100%
- pest or weed control at 80 g/ha [14]: 100%
- pest or weed control at 5 g/ha [15]: 80%
- pest or weed control at 20 g/ha [15]: 90%
- pest or weed control at 20 g/ha [16]: 90%
- pest or weed control at 5 g/ha [17]: 80%
- pest or weed control at 20 g/ha [17]: 80%
- pest or weed control at 5 g/ha [18]: 80%
- pest or weed control at 20 g/ha [18]: 80%
- pest or weed control at 5 g/ha [19]: 80%
- pest or weed control at 20 g/ha [19]: 80%
- pest or weed control at 20 g/ha [20]: 80%
- pest or weed control at 20 g/ha [21]: 80%
- pest or weed control at 20 g/ha [22]: 80%
- pest or weed control at 5 g/ha [23]: 80%
- pest or weed control at 20 g/ha [23]: 90%
- pest or weed control at 5 g/ha [24]: 80%
- pest or weed control at 20 g/ha [24]: 80%

SMILES: Cc1c(C(=O)Nc2nnnn2C)ccc(C(F)F)c1C(=O)NC1CC1 [Example 1-46]
- pest or weed control at 80 g/ha [1]: 100%
- pest or weed control at 20 g/ha [1]: 90%
- pest or weed control at 80 g/ha [2]: 90%
- pest or weed control at 20 g/ha [3]: 100%
- pest or weed control at 80 g/ha [3]: 100%
- pest or weed control at 80 g/ha [4]: 100%
- pest or weed control at 80 g/ha [5]: 80%
- pest or weed control at 80 g/ha [6]: 90%
- pest or weed control at 20 g/ha [7]: 90%
- pest or weed control at 80 g/ha [7]: 100%
- pest or weed control at 80 g/ha [8]: 80%
- pest or weed control at 80 g/ha [9]: 80%
- pest or weed control at 80 g/ha [10]: 100%
- pest or weed control at 20 g/ha [11]: 90%
- pest or weed control at 80 g/ha [11]: 100%
- pest or weed control at 80 g/ha [12]: 90%
- pest or weed control at 20 g/ha [13]: 90%
- pest or weed control at 80 g/ha [13]: 100%
- pest or weed control at 20 g/ha [14]: 90%
- pest or weed control at 80 g/ha [14]: 100%
- pest or weed control at 5 g/ha [15]: 90%
- pest or weed control at 20 g/ha [15]: 90%
- pest or weed control at 20 g/ha [25]: 90%
- pest or weed control at 20 g/ha [16]: 100%
- pest or weed control at 20 g/ha [26]: 80%
- pest or weed control at 5 g/ha [17]: 80%
- pest or weed control at 20 g/ha [17]: 80%
- pest or weed control at 20 g/ha [18]: 80%
- pest or weed control at 5 g/ha [19]: 80%
- pest or weed control at 20 g/ha [19]: 80%
- pest or weed control at 20 g/ha [20]: 80%
- pest or weed control at 20 g/ha [21]: 80%
- pest or weed control at 20 g/ha [22]: 90%
- pest or weed control at 5 g/ha [23]: 80%
- pest or weed control at 20 g/ha [23]: 80%
- pest or weed control at 5 g/ha [24]: 80%
- pest or weed control at 20 g/ha [24]: 80%

SMILES: CCn1nnnc1NC(=O)c1ccc(C(F)(F)F)c(C(=O)NC2CC2)c1C1CC1 [Example 2-288]
- pest or weed control at 80 g/ha [1]: 100%
- pest or weed control at 20 g/ha [1]: 100%
- pest or weed control at 80 g/ha [2]: 90%
- pest or weed control at 20 g/ha [3]: 100%
- pest or weed control at 80 g/ha [3]: 100%
- pest or weed control at 80 g/ha [4]: 90%
- pest or weed control at 20 g/ha ([4]; 20 g/ha, scored visually after 3 weeks, 100% = plants have died, 0% = like control plants): 80%
- pest or weed control at 20 g/ha ([5]; 20 g/ha): 90%
- pest or weed control at 80 g/ha [5]: 100%
- pest or weed control at 80 g/ha [6]: 90%
- pest or weed control at 20 g/ha [7]: 90%
- pest or weed control at 80 g/ha [7]: 100%
- pest or weed control at 80 g/ha [8]: 90%
- pest or weed control at 80 g/ha [9]: 90%
- pest or weed control at 20 g/ha ([10]; dosage 20 g/ha): 90%
- pest or weed control at 80 g/ha [10]: 100%
- pest or weed control at 80 g/ha [12]: 100%
- pest or weed control at 20 g/ha [13]: 100%
- pest or weed control at 80 g/ha [13]: 100%
- pest or weed control at 20 g/ha [14]: 100%
- pest or weed control at 80 g/ha [14]: 100%
- pest or weed control at 5 g/ha [15]: 80%
- pest or weed control at 20 g/ha [15]: 80%
- pest or weed control at 20 g/ha [25]: 90%
- pest or weed control at 20 g/ha [16]: 100%
- pest or weed control at 20 g/ha [26]: 80%
- pest or weed control at 5 g/ha [17]: 80%
- pest or weed control at 20 g/ha [17]: 80%
- pest or weed control at 5 g/ha [18]: 80%
- pest or weed control at 20 g/ha [18]: 90%
- pest or weed control at 5 g/ha [19]: 80%
- pest or weed control at 20 g/ha [19]: 90%
- pest or weed control at 5 g/ha ([20]; dosage 5 g/ha): 80%
- pest or weed control at 20 g/ha [20]: 90%
- pest or weed control at 20 g/ha [22]: 80%
- pest or weed control at 5 g/ha [23]: 90%
- pest or weed control at 20 g/ha [23]: 100%
- pest or weed control at 5 g/ha [24]: 90%
- pest or weed control at 20 g/ha [24]: 90%
